Holding throughout (format): in vivo
The test system of data set [1] is housefly. Nature of the data set: whole plant or invertebrate. Particulars: Musca domestica, adult houseflies, mortality at 24 hours, read-out: percent kill, housefly (HF). On the procedure:
(§1) The new 1-(4-butylphenyl)-1-(3,4-methylenedioxyphenyl)-2-nitroalkanes of this invention (Examples 4-6) were evaluated in standard greenhouse insecticide tests using housefly (HF), Mexican bean beetle (MB), Southern armyworm (SA) and yellow fever mosquito (YF). The rates of application were 500 and 100 ppm of active ingredient except in the mosquito test where test rates were 10 and 1 ppm. The results as set forth in Table I below indicate the percent kill of each insect species.
(§2) Housefly; 1 milliliter of an aqueous solution or suspension of the test compound was pipeted into a 9 cm. petri dish containing filter paper and 0.1 gram of granular sugar. Ten adult houseflies were admitted and the dish closed. Observations were made periodically for knockdown and at 24 hours for mortality.

The subject of a further data set is Mexican bean beetle. Nature of the data set: whole plant or invertebrate. Particulars: Epilachna varivestis, third or fourth instar larvae, 48 to 72 hour, read-out: percent kill, Mexican bean beetle (MB). On the procedure: as §1
(§3) Southern armyworm and Mexican bean beetle; lima bean leaves of uniform size were momentarily dipped in a water-acetone solution of the test compound and the treated leaves were then placed on moistened filter paper in 9 cm. petri dishes and allowed to air dry. When dry, five, third or fourth instar larvae were introduced and encouraged to feed on the treated foliage by means of confinement. The dishes were closed and held for observation of mortality and feeding during a 48 to 72 hour period.

For the next data set, the system named is Southern armyworm. Put plainly: whole plant or invertebrate. Particulars: Spodoptera eridania, in Phaseolus lunatus, third or fourth instar larvae, 48 to 72 hour, read-out: percent kill, Southern armyworm (SA). On the procedure:
as §1, §3

Another data set concerns yellow fever mosquito. Nature of the data set: whole plant or invertebrate. As to conditions: Aedes aegypti, fourth stage larvae, 24 hour exposure, read-out: percent kill, yellow fever mosquito (YF); for mortality at 1 ppm: 1 ppm (line printed as 100 ppm; footnote: 10 and 1 ppm for YF); for mortality at 10 ppm: 10 ppm (line printed as 500 ppm; footnote: 10 and 1 ppm for YF). On the procedure:
as §1
Yellow fever mosquito; fourth stage larvae were exposed to a solution of the active compound in water. The active material was initially dissolved in acetone and then added to the water. The compounds were screened at 10 ppm and at 1 ppm using approximately 10 larvae per 100 ml of treated water. Each treatment was replicated twice. Mortality was determined after 24 hour exposure.

In data set [2] the test system is housefly. Nature of the data set: insecticide synergist test of mixtures on housefly. Particulars: 25 ppm (0.0025 wt. %) total of both active ingredients; numbers in parentheses are % in mixture; 1440 min. On the procedure: as §2
The new 1-(4-butylphenyl)-1-(3,4-methylenedioxyphenyl)-2-nitroalkanes of this invention were evaluated as insecticide synergists in standard insecticide tests. In general the compounds of this invention were combined with the insecticide -- 1-(p-tert-butylphenyl)-1-(p-ethoxyphenyl)-2-nitrobutane (pending application Serial No. 410,935, filed October 29, 1973) designated as Example 8 above -- in varying proportions starting from, for example, 90% Example 4, 5 or 6 plus 10% Example 8 and decreasing to, for example 10% Example 4, 5 or 6, plus 90% Example 8. In all cases, the total sum of active ingredients (i.e. Examples 4, 5 or 6 plus 8) equaled 25 ppm. These mixtures were tested on housefly following the standard greenhouse test procedure, outlined above. The results as set forth below indicate the percent kill (or percent control) of the insect species: […]

On to `CC(C(c1ccc(C(C)(C)C)cc1)c1ccc2c(c1)OCO2)[N+](=O)[O-]` (centres unmarked) [Example 5, 1-(4-tert-Butylphenyl)-1-(3,4-methylenedioxyphenyl)-2-nitropropane], for which the mortality at 100 ppm is 10% with housefly [1], 100% in the data set on Mexican bean beetle and 80% in the data set on Southern armyworm. The mortality at 500 ppm in the data set on housefly [1], in the data set with Mexican bean beetle and in the data set with Southern armyworm was 100% throughout. Also, the mortality at 1 ppm in the data set with yellow fever mosquito was 100%. Further, in the data set on yellow fever mosquito, the mortality at 10 ppm amounted to 100%.

With `CCC(C)c1ccc(C(c2ccc3c(c2)OCO3)C(CC)[N+](=O)[O-])cc1` (centres unmarked) [Example 6, 1-(4-sec-Butylphenyl)-1-(3,4-methylenedioxyphenyl)-2-nitrobutane], in the data set on housefly [1], the mortality at 100 ppm stood at 100% and the mortality at 500 ppm worked out at 100%. Moreover, in the data set on Mexican bean beetle, the mortality at 100 ppm was found to be 90% and the mortality at 500 ppm came to 100%. Besides, in the data set with Southern armyworm, the mortality at 100 ppm amounted to 30% and the mortality at 500 ppm was determined as 100%. Also, in the data set with yellow fever mosquito, the mortality at 1 ppm came out at 100% and the mortality at 10 ppm was determined as 100%. In the data set on housefly [2], the “% CONTROL (percent kill or percent control), housefly” value worked out at 0%.

Regarding `CCOc1ccc(C(c2ccc(C(C)(C)C)cc2)C(CC)[N+](=O)[O-])cc1` (centres unmarked) [Example 8, 1-(p-tert-Butylphenyl)-1-(p-ethoxyphenyl)-2-nitrobutane], in the data set with housefly [2], the “% CONTROL (percent kill or percent control), housefly” value was 40%.

Regarding `CCC(C(c1ccc(C(C)(C)C)cc1)c1ccc2c(c1)OCO2)[N+](=O)[O-]` (centres unmarked) [Example 4, 1-(4-tert-Butylphenyl)-1-(3,4-methylenedioxyphenyl)-2-nitrobutane], in the data set with housefly [1], the mortality at 100 ppm came out at 20% and the mortality at 500 ppm was 100%. Moreover, in the data set with Mexican bean beetle, the mortality at 100 ppm worked out at 100% and the mortality at 500 ppm is 100%. Further, in the data set on Southern armyworm, the mortality at 100 ppm was 100% and the mortality at 500 ppm was found to be 100%. In the data set with yellow fever mosquito, the mortality at 1 ppm is 40% and the mortality at 10 ppm was found to be 100%.

Values taken from patent publication US4004023A, “1-(4-Butylphenyl)-1-(3,4-methylenedioxyphenyl)-2-nitroalkanes and synergistic insecticidal mixtures therewith” (Mobil Oil Corporation, priority 1975, dated 1977).
